Test: Geldanamycin cytotoxicity
Assay type: cell-based

With `COC1=C2C[C@@H](C)C[C@H](OC)[C@H](O)[C@@H](C)/C=C(\C)[C@H](OC(N)=O)[C@@H](OC)/C=C\C=C(/C)C(=O)NC(=CC1=O)C2=O` [Geldanamycin] the cytotoxicity was “primarily the result of GA cytotoxicity”.

Source: patent publication US20030039658A1, “MCEF, a novel transcription factor” (priority 2000, published 2003)
